Measurements from patent US6537974B2, “Method of treating arrhythmias” (CV Therapeutics, Inc., priority 2000, dated 2003).

Tests used:
[1] = tested on: AV node (AH interval); assay: Electrophysiology study: single intravenous bolus of CVT-510, effect on AH interval, heart rate, blood pressure; type: in vivo, human
Protocol: (§1) The effect of CVT-510 on prolongation of AH interval, a measure of an adenosine A1 mediated effect of CVT-510, and on the heart rate (sinus rate) of patients with PSVT was tested in patients undergoing a clinically indicated electrophysiology study. In the first study patients volunteers were administered a single bolus of. CVT-510. In the second study PSVT was induced in patients prior to the administration of CVT-510.
All antiarrhythmic agents, including digoxin, beta-blockers and calcium-channel blockers were discontinued for five half-lives prior to the study.
Patients were excluded from the study if the PR interval was >200 ms or resting heart rate was <60 or >100/min. Other exclusion criteria included evidence of ventricular preexcitation, Class II-IV congestive heart failure or asthma. Patients were also required to have normal baseline electrophysiologic parameters, including a paced AV nodal Wenckebach cycle length 500 ms, an AH interval between 60 and 125 ms and an HV interval 35-55 ms. All patients were 18 years of age.
Quadripolar catheters were introduced percutaneously and advanced under fluoroscopic guidance to the high right atrium and across the tricuspid annulus to record the His bundle potential. […] Data were stored on optical disk. All patients had continuous ECG and non-invasive blood pressure monitoring throughout the study.
Cardiac stimulation was performed with a programmable stimulator with an isolated constant-current source. Stimuli were delivered as rectangular pulses of 2 ms duration at four times diastolic threshold. The study design was open-label with dose escalation, with the latter determined by tolerability. A single intravenous bolus of CVT-510 was administered to each patient after baseline electrophysiologic measurements were made.
After a bolus dose of CVT-510 was given, blood pressure, heart rate, 12-lead ECG and AH and HV intervals were recorded at 1, 5, 10, 15, 20 and 30 min and then every 15 min for up to 1 hour post-bolus or until the parameters returned to baseline. The AH and HV intervals were determined by measuring the last interval during a 15 beat drive at a paced cycle length of 600, 500 and 400 ms (unless precluded by pacing-induced AV nodal Wenckebach).
Administration of CVT-510 started at a dose of 0.3 μg/kg. Dose escalation proceeded with additional groups of patients receiving doses of 1, 3, 7.5, 10, 15 and 30 μg/kg based on tolerability and the absence of AV nodal Wenckebach or 3° AV block during sinus rhythm.
Data are expressed as mean ±SD. Based on the results of the normality test, a paired t-test or a non-parametric signed-rank test (SR) was used to determine the significance of CVT-510's effects on heart rate, blood pressure, ECG and AV nodal conduction times (AH and HV) for each dosing group (e.g., 0.3, 1.0, 3.0, 7.5, 10.0, 15.0 and 30.0 μg/kg). Similarly, analysis of variance (ANOVA) or the Kruskal-Wallis test (KW) was used to compare the AH intervals during sinus rhythm and atrial pacing at all doses. No adjustment for multiple comparisons were made, and a P value <0.05 were used to determine the significance of the differences between mean values.

[2] = tested on: patients with PSVT; assay: Treatment of patients with induced PSVT with CVT-510 boluses: conversion to sinus rhythm; type: in vivo, human; conditions: for % conversion after Bolus 1 / % conversion after Bolus 2 / % cumulative conversion: patients with PSVT
Protocol: as §1

[3] = target: T1, A1 adenosine receptor (Homo sapiens, UniProt P30542); assay: Specificity for the A1 adenosine receptor: CPX antagonism, left ventricular pressure
T1 sequence (P30542 1-326): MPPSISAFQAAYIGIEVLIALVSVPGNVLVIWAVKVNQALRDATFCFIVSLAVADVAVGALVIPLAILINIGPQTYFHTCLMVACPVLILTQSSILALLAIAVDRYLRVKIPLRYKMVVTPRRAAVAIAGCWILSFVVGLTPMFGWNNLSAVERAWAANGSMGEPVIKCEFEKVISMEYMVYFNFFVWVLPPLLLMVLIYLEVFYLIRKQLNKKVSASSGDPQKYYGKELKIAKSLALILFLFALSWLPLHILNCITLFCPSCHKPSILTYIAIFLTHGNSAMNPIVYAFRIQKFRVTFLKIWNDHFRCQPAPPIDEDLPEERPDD

[4] = in vivo; cited from earlier work

Structure (SMILES): OC[C@H]1O[C@@H](n2cnc3c(N[C@@H]4CCOC4)ncnc32)[C@H](O)[C@@H]1O [CVT-510, 6-(3-(R)-aminotetrahydrofuranyl)purine riboside]
- effect on AV nodal conduction ([1]; bolus doses 0.3-30 μg/kg, patients): slows AV nodal conduction in a dose-dependent manner
- time of maximal effect on the AH interval after dosing ([1]; dose of 7.5 μg/kg, human patients): one
- half-life compared with adenosine ([1]; in vivo): relatively long
- effect on sinus rate ([1]; patients): no effect
- effect on systemic blood pressure ([1]; patients): no effect
- onset of action ([1]; post-administration): ≤ 1 min
- time by which effects were mostly eliminated ([1]; post-administration): ≤ 20 min
- % conversion after Bolus 1 ([2]; Dose Level 3 (n = 4)): 75%
- % conversion after Bolus 2 ([2]; Dose Level 3 (n = 4)): 25%
- % cumulative conversion ([2]; Dose Level 3 (n = 4)): 100%
- % conversion after Bolus 1 ([2]; Dose Level 5 (n = 9)): 78%
- % conversion after Bolus 2 ([2]; Dose Level 5 (n = 9)): 0%
- % cumulative conversion ([2]; Dose Level 5 (n = 9)): 78%
- % conversion after Bolus 1 ([2]; Dose Level 7.5 (n = 4)): 100%
- % conversion after Bolus 2 ([2]; Dose Level 7.5 (n = 4)): 0%
- % cumulative conversion ([2]; Dose Level 7.5 (n = 4)): 100%
- % conversion after Bolus 1 ([2]; Dose Level 10 (n = 5)): 90%
- % conversion after Bolus 2 ([2]; Dose Level 10 (n = 5)): 0%
- % cumulative conversion ([2]; Dose Level 10 (n = 5)): 90%
- % conversion after Bolus 1 ([2]; Dose Level 12.5 (n = 4)): 75%
- % conversion after Bolus 2 ([2]; Dose Level 12.5 (n = 4)): 25%
- % cumulative conversion ([2]; Dose Level 12.5 (n = 4)): 100%
- % conversion after Bolus 1 ([2]; Dose Level 15 (n = 10)): 80%
- % conversion after Bolus 2 ([2]; Dose Level 15 (n = 10)): 10%
- % cumulative conversion ([2]; Dose Level 15 (n = 10)): 90%
- HV prolongation ([2]; at low concentrations): without causing
- depressing sinus or AV nodal conduction after restoring SR ([2]; at low concentrations): without causing
- hypotension ([2]; at low concentrations): without causing
- termination of PSVT ([2]; at low concentrations): rapidly terminates PSVT
- effect on dpdt^−1 max [3]: no effect
- effect on left ventricular pressure [3]: no effect
- effects on the AV node in the presence of the selective A1 receptor antagonist CPX ([3]; with CPX, effects on coronary conductance not abolished): completely abolished

Structure (SMILES): C[C@H]1O[C@@H](O[C@H]2[C@@H](O)C[C@H](O[C@H]3[C@@H](O)C[C@H](O[C@H]4CC[C@@]5(C)[C@H](CC[C@@H]6[C@@H]5C[C@@H](O)[C@]5(C)[C@@H](C7=CC(=O)OC7)CC[C@]65O)C4)O[C@@H]3C)O[C@@H]2C)C[C@H](O)[C@@H]1O [Digoxin]
- delayed onset of action [4]: about 30 min
- time to peak effects after administration [4]: 3 to 4 h
